*1 amine or outer side, *2 acyl side, *3 side chain or, on linkers, in order; H or OH if unused. Where a SMILES comes first, the peptide text is derived from it. Bridges are numbered along the chain shown (N, C = ends). [ ]: non-standard residue; d: D form. The star is where a group is joined. C20 diacid = O=C(O)CCCCCCCCCCCCCCCCCCC(=O)*; γGlu = O=C(O)[C@H](CCC(=O)[*:2])N[*:1]; Hyp = O=C(O)[C@@H]1C[C@@H](O)CN1; NMeI = CC[C@H](C)[C@H](NC)C(=O)O; Aad = N[C@@H](CCCC(=O)O)C(=O)O; Sar = CNCC(=O)O
What was measured:
[1] = target: T1, human amylin receptor 3 (hAMYR3), hCTR2 co-expressed with hRAMP3 (Homo sapiens, UniProt O60896+P30988); assay: hAMYR3 cAMP assay (AlphaScreen) in COS7 cells; format: cell-based; details: cAMP induction, COS7 cells expressing hAMYR3; Table 1; read-out: hAMYR3 EC50
T1 construct: expressed in transfected cells
T1 sequence (P30988 25-474): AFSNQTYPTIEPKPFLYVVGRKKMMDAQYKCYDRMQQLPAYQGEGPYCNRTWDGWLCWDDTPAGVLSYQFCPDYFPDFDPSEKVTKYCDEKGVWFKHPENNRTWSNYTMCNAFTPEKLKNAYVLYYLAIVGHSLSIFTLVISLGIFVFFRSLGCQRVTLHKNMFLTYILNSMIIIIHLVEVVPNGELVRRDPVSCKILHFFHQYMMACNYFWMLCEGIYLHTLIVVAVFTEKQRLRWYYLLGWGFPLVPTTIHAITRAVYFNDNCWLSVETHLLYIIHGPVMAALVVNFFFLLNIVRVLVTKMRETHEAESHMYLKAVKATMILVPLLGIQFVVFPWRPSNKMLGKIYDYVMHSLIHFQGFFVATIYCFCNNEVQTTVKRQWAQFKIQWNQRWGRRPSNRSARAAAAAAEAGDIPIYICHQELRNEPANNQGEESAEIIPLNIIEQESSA
T1 sequence (O60896 24-148 partner): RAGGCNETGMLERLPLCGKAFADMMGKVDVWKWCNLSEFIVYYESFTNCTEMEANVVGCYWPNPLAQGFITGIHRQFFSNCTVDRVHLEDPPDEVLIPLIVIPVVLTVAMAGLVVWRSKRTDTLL
How it was run: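 Stable COS7 clone co-expressing hCTR2 and hRAMP3 was exposed to increasing peptide concentrations in Tyrode buffer (pH 7.4) with 100 µM IBMX and 0.1% casein for 15 min at 37 °C. Lysate cAMP was measured by AlphaScreen; EC50 came from 4-parameter logistic fitting.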

[2] = target: T2, human calcitonin receptor (hCTR2) (Homo sapiens, UniProt P30988); assay: hCTR2 cAMP assay (AlphaScreen) in COS7 cells; format: cell-based; details: cAMP induction, COS7 cells expressing hCTR2; Table 1; read-out: hCTR2 EC50
T2 construct: expressed in transfected cells
T2 sequence (P30988 25-474): T1 sequence (P30988 25-474)
How it was run: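 Stable hCTR2 clone in RAMP-naïve COS7 cells stimulated 15 min at 37 °C with increasing peptide concentrations in Tyrode buffer pH 7.4 containing IBMX and 0.1% casein. cAMP in lysates measured by AlphaScreen; EC50 from 4-parameter logistic fit.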

[3] = Assessment of chemical stability (RP-HPLC normalized purity); format: physicochemical; details: 7 days, 40° C., Table 1; for Normalized purity after 7 days, 40° C., pH 4: pH 4, 0.2 mg/ml; for Normalized purity after 7 days, 40° C., pH 6: pH 6, 0.2 mg/ml; for Normalized purity after 7 days, 40° C., pH 7.5: pH 7.5, 0.2 mg/ml; for Normalized purity after 7 days, 40° C., pH 9: pH 9, 0.2 mg/ml
How it was run: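 Peptides at 0.2 mg/ml in water adjusted to pH 4, 6, 7.5 or 9, incubated at 40° C for 7 days. Main-peak area-% by RP-HPLC (C8 ammonium formate or C18 TFA gradient, UV 220 nm), normalized to T=0 as 100.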

| Compound | EC50 [1] | EC50 [2] | Normalized purity after 7 days, 40° C., pH 4 [3] | Normalized purity after 7 days, 40° C., pH 6 [3] | Normalized purity after 7 days, 40° C., pH 7.5 [3] | Normalized purity after 7 days, 40° C., pH 9 [3] |
| --- | --- | --- | --- | --- | --- | --- |
| CC[C@H](C)[C@@H](C(=O)N[C@@H](CC(C)C)C(=O)N[C@@H](CO)C(=O)N[C@@H](CO)C(=O)N[C@H](C(=O)N[C@@H](CCC(=O)O)C(=O)N[C@H](C(=O)NCC(=O)N[C@@H](CO)C(=O)N[C@@H](CO)C(=O)N[C@H](C(=O)N1C[C@H](O)C[C@H]1C(N)=O)[C@@H](C)O)C(C)C)[C@@H](C)O)N(C)C(=O)[C@H](C)NC(=O)CN(C)C(=O)[C@H](Cc1ccccc1)NC(=O)[C@H](CO)NC(=O)[C@H](CO)NC(=O)[C@H](CCCNC(=N)N)NC(=O)[C@H](CCC(N)=O)NC(=O)[C@H](CC(C)C)NC(=O)[C@H](Cc1ccccc1)NC(=O)[C@H](Cc1c[nH]cn1)NC(=O)[C@H](C)NC(=O)[C@H](CC(C)C)NC(=O)[C@H](CCCNC(=N)N)NC(=O)[C@H](CCC(N)=O)NC(=O)[C@@H](NC(=O)[C@H](C)NC(=O)[C@@H]1CSSC[C@H](NC(=O)[C@H](CCCNC(=N)N)NC(=O)CC[C@H](NC(=O)CCCCCCCCCCCCCCCCCCC(=O)O)C(=O)O)C(=O)N[C@@H](CC(N)=O)C(=O)N[C@@H]([C@@H](C)O)C(=O)N[C@@H](C)C(=O)N[C@@H]([C@@H](C)O)C(=O)N1)[C@@H](C)O [Compound 69, [19CD]-isoGlu-R-C( )-NTAT-C( )-ATQRLAHFLQRSSF-Gly(Me)-A-Ile(Me)-LSSTEVGSST-Hyp-NH2] ({C20 diacid-γGlu}-RCNTATCATQRLAHFLQRSSF[Sar]A[NMeI]LSSTEVGSST[Hyp]-NH2; disulfide 2-7) | 0.17 nM | 0.12 nM | A (A = >90%) | A (A = >90%) | B (B = 70-90%) | B (B = 70-90%) |
| CC[C@H](C)[C@@H](C(=O)N[C@@H](CC(C)C)C(=O)N[C@@H](CO)C(=O)N[C@@H](CO)C(=O)N[C@H](C(=O)N[C@@H](CCC(=O)O)C(=O)N[C@H](C(=O)NCC(=O)N[C@@H](CO)C(=O)NCC(=O)N[C@H](C(=O)N1CCC[C@H]1C(N)=O)[C@@H](C)O)C(C)C)[C@@H](C)O)N(C)C(=O)[C@H](C)NC(=O)CN(C)C(=O)[C@H](Cc1ccccc1)NC(=O)[C@H](CO)NC(=O)[C@H](CO)NC(=O)[C@H](CCCNC(=N)N)NC(=O)[C@H](CCC(N)=O)NC(=O)[C@H](CC(C)C)NC(=O)[C@H](Cc1ccccc1)NC(=O)[C@H](CC(=O)O)NC(=O)[C@H](C)NC(=O)[C@H](CC(C)C)NC(=O)[C@H](CCCNC(=N)N)NC(=O)[C@H](CCC(N)=O)NC(=O)[C@@H](NC(=O)[C@H](C)NC(=O)[C@@H]1CSSC[C@H](NC(=O)[C@H](CCCNC(=N)N)NC(=O)CC[C@H](NC(=O)CCCCCCCCCCCCCCCCCCC(=O)O)C(=O)O)C(=O)N[C@@H](CC(N)=O)C(=O)N[C@@H]([C@@H](C)O)C(=O)N[C@@H](C)C(=O)N[C@@H]([C@@H](C)O)C(=O)N1)[C@@H](C)O [Compound 80, [19CD]-isoGlu-R-C( )-NTAT-C( )-ATQRLADFLQRSSF-Gly(Me)-A-Ile(Me)-LSSTEVGSGTP-NH2] ({C20 diacid-γGlu}-RCNTATCATQRLADFLQRSSF[Sar]A[NMeI]LSSTEVGSGTP-NH2; disulfide 2-7) | 0.28 nM | 0.13 nM | A (A = >90%) | A (A = >90%) | A (A = >90%) | A (A = >90%) |
| CC[C@H](C)[C@@H](C(=O)N[C@@H](CC(C)C)C(=O)N[C@@H](CO)C(=O)N[C@@H](CO)C(=O)N[C@H](C(=O)N[C@@H](CCC(=O)O)C(=O)N[C@H](C(=O)NCC(=O)N[C@@H](CO)C(=O)NCC(=O)N[C@H](C(=O)N1C[C@H](O)C[C@H]1C(N)=O)[C@@H](C)O)C(C)C)[C@@H](C)O)N(C)C(=O)[C@H](C)NC(=O)CN(C)C(=O)[C@H](Cc1ccccc1)NC(=O)[C@H](CO)NC(=O)[C@H](CO)NC(=O)[C@H](CCCNC(=N)N)NC(=O)[C@H](CCC(N)=O)NC(=O)[C@H](CC(C)C)NC(=O)[C@H](Cc1ccccc1)NC(=O)[C@H](CC(=O)O)NC(=O)[C@H](C)NC(=O)[C@H](CC(C)C)NC(=O)[C@H](CCCNC(=N)N)NC(=O)[C@H](CCC(N)=O)NC(=O)[C@@H](NC(=O)[C@H](C)NC(=O)[C@@H]1CSSC[C@H](NC(=O)[C@H](CCCNC(=N)N)NC(=O)CC[C@H](NC(=O)CCCCCCCCCCCCCCCCCCC(=O)O)C(=O)O)C(=O)N[C@@H](CC(N)=O)C(=O)N[C@@H]([C@@H](C)O)C(=O)N[C@@H](C)C(=O)N[C@@H]([C@@H](C)O)C(=O)N1)[C@@H](C)O [Compound 81, [19CD]-isoGlu-R-C( )-NTAT-C( )-ATQRLADFLQRSSF-Gly(Me)-A-Ile(Me)-LSSTEVGSGT-Hyp-NH2] ({C20 diacid-γGlu}-RCNTATCATQRLADFLQRSSF[Sar]A[NMeI]LSSTEVGSGT[Hyp]-NH2; disulfide 2-7) | 0.23 nM | 0.1 nM | A (A = >90%) | A (A = >90%) | A (A = >90%) | A (A = >90%) |
| CC[C@H](C)[C@@H](C(=O)N[C@@H](CC(C)C)C(=O)N[C@@H](CO)C(=O)N[C@@H](CO)C(=O)N[C@H](C(=O)N[C@@H](CCC(=O)O)C(=O)N[C@H](C(=O)NCC(=O)N[C@@H](CO)C(=O)N[C@@H](CC(N)=O)C(=O)N[C@H](C(=O)N1C[C@H](O)C[C@H]1C(N)=O)[C@@H](C)O)C(C)C)[C@@H](C)O)N(C)C(=O)[C@H](C)NC(=O)CN(C)C(=O)[C@H](Cc1ccccc1)NC(=O)[C@H](CO)NC(=O)[C@H](CO)NC(=O)[C@H](CCCNC(=N)N)NC(=O)[C@H](CCC(N)=O)NC(=O)[C@H](CC(C)C)NC(=O)[C@H](Cc1ccccc1)NC(=O)[C@H](CCCC(=O)O)NC(=O)[C@H](C)NC(=O)[C@H](CC(C)C)NC(=O)[C@H](CCCNC(=N)N)NC(=O)[C@H](CCC(N)=O)NC(=O)[C@@H](NC(=O)[C@H](C)NC(=O)[C@@H]1CSSC[C@H](NC(=O)[C@H](CCCNC(=N)N)NC(=O)CC[C@H](NC(=O)CCCCCCCCCCCCCCCCCCC(=O)O)C(=O)O)C(=O)N[C@@H](CC(N)=O)C(=O)N[C@@H]([C@@H](C)O)C(=O)N[C@@H](C)C(=O)N[C@@H]([C@@H](C)O)C(=O)N1)[C@@H](C)O [Compound 86, [19CD]-isoGlu-R-C( )-NTAT-C( )-ATQRLA-Aad-FLQRSSF-Gly(Me)-A-Ile(Me)-LSSTEVGSNT-Hyp-NH2] ({C20 diacid-γGlu}-RCNTATCATQRLA[Aad]FLQRSSF[Sar]A[NMeI]LSSTEVGSNT[Hyp]-NH2; disulfide 2-7) | 0.15 nM | 0.1 nM | A (A = >90%) | A (A = >90%) | A (A = >90%) | A (A = >90%) |

From US20210115104A1, “AMYLIN ANALOGUES” (Zealand Pharma A/S, priority 2015, published 2021)
